Laboratory results: publication PMC5147891 (PLoS ONE, 2016)
“And” between values parts separate entries of the source, which are not always exact repeats. Equal values may be shown once.

Columns and labels:
hCB2 receptors [1] = target: T1, hCB2 receptors (Homo sapiens, UniProt P34972); experiment: Competition receptor binding with [3H]CP-55,940, CHO-hCB2 membranes; settings: [3H]CP-55,940 binding, CHO-hCB2, 0.2 nM [3H]CP-55,940, CHO-hCB2 membranes
T1 construct: expressed in transfected cells
Experimental: (§1) CHO-hCB1, CHO-hCB2 and CHO-hMOR cells were homogenized individually with 10 complete strokes utilizing a 7ml Dounce glass homogenizer in an ice-cold buffer containing 50 mM HEPES pH 7.4, 3 mM MgCl2, and 1 mM EDTA as described previously. The homogenized samples were then centrifuged at 40,000 × g for 10 min at 4°C. Supernatants were discarded; the pellets re-suspended in the buffer, homogenized again, and centrifuged similarly twice more. After the final centrifugation step, supernatants were discarded and pellets were re-suspended in ice-cold 50 mM HEPES, pH 7.4 to achieve an approximate protein concentration of 10 mg/ml. Membrane homogenates were divided into aliquots and stored at −80°C for future use. A small aliquot of each membrane preparation was removed prior to freezing and the protein concentration was determined using BCA Protein Assay (Thermo Fisher Scientific, Waltham, MA).
(§2) Competition receptor binding was performed as reported earlier. […] The total volume of the incubation mixture was 1 ml. All reactions were mixed and allowed to reach equilibrium binding by incubation at room temperature for 90 min. […] Binding was terminated by rapid vacuum filtration through glass fiber filters (Brandel, Gaithersburg, MD), followed by four 5 ml washes of ice-cold 50 mM Tris-HCl (pH 7.4) buffer containing 0.1% bovine serum albumin. Four ml of scintiverse scintillation fluid (Fisher Scientific, Waltham, MA) was added to the filters and the amount of radioactivity was quantified 24 hr later utilizing liquid scintillation spectrophotometry.
(§3) Data presented are expressed as mean ± standard error of the mean (S.E.M.) for a minimum of three experiments, each performed in triplicate. GraphPad Prism version 6.0f (GraphPad Software Inc.) was used for all curve-fitting and statistical analyses. Non-linear regression for one-site competition was used to determine the IC50 for competition receptor binding. IC50 values were subsequently converted to Ki values (a measure of receptor affinity) by the Cheng-Prusoff equation [31]. Non-linear regression was also used to analyze concentration-effect curves to determine the EC50 or IC50 (measures of potency) and Emax or Imax (measures of efficacy) for GTPγS binding and adenylyl cyclase experiments, respectively. All dissociation constants and measurements of potency were converted to pKi, pKB, pEC50, or pIC50 values by taking the negative log of each value so that parametric tests could be used for statistical comparisons. To compare three or more groups, statistical significance of the data was determined by a one-way ANOVA, followed by post hoc comparisons using a Tukey's or Dunnett's test. To compare two groups, the non-paired Student's t-test was used.

hCB1 receptors [2] = target: T2, hCB1 receptors (Homo sapiens, UniProt P21554); experiment: Antagonism of CP-55,940 inhibition of AC activity in intact CHO-hCB1 cells; assay type: cell-based
Experimental: (§4) After overnight seeding into 24-well plates and pre-incubation of cells with [^3H]adenine for 3–5 hr at 37°C as described above, media was removed and the indicated concentration of the SERM to be tested was added to all wells of the 24-well plate. […] Reactions were terminated and [^3H]cAMP isolated as described above.
as §3

hCB2 receptors [3] = target: T1, hCB2 receptors; experiment: Antagonism of CP-55,940 inhibition of AC activity in intact CHO-hCB2 cells; assay type: cell-based
Experimental: as §4, §3

hCB2 receptors [4] = target: T1, hCB2 receptors; experiment: Forskolin-stimulated intracellular [3H]cAMP in intact CHO-hCB2 cells; assay type: cell-based; settings: values only approximate; for EMAX, intracellular [3H]cAMP: forskolin-stimulated cAMP; for EC50: increase of forskolin-stimulated cAMP
Experimental: CHO-hCB1, CHO-hCB2, or CHO-hMOR cells were plated separately in normal culture media into 24-well plates at a density of 6 × 10^6 cells/plate and incubated overnight at 37°C in 5% CO2. As previously described, the following day culture media was removed from each well and replaced with 500 μl pre-incubation mixture containing either HAM’s F-12 K (CHO-hCB1) or DMEM (CHO-hCB2 and CHO-hMOR) with 0.9% NaCl, 500 μM 3-isobutyl-1-methylxathine (IBMX) and 2 μCi/well [^3H]adenine. Cells were incubated for 3–5 hr at 37°C. The pre-incubation mix was removed and indicated concentrations of drugs were added to the individual wells for 15 min at 37°C in a Krebs-Ringer-HEPES solution (10 mM HEPES, 110mM NaCl, 25mM Glucose, 55mM Sucrose, 5mM KCl, 1mM MgCl2, 1.8 mM CaCl2, pH 7.4) containing IBMX, and 10 μM forskolin. Reactions were terminated by adding 50 μl 2.2N HCl and [^3H]cAMP was isolated by employing alumina column chromatography. Radioactivity contained in 4 ml of the final column eluate was counted by a Packard-Tri-carb 2100/TR liquid scintillation counter after adding 10 ml of liquid scintillation cocktail.
To determine if modulation of adenylyl cyclase activity by SERMs was mediated through CB2 receptors coupling to Gi/o proteins, additional cAMP assays were conducted following overnight treatment with pertussis toxin as described elsewhere. Briefly, CHO-hCB2 cells were seeded into 24-well plates as described above in normal culture media containing 100 ng/ml of pertussis toxin and incubated overnight at 37°C. Pertussis toxin-treated media was removed and measurement of intracellular [^3H]cAMP levels following indicated SERM treatments was conducted as described above.
as §3

hCB1 receptors [5] = target: T2, hCB1 receptors; experiment: Competition receptor binding with [3H]CP-55,940, CHO-hCB1 membranes; settings: for Ki: [3H]CP-55,940 binding, CHO-hCB1, 0.2 nM [3H]CP-55,940, CHO-hCB1 membranes; for Selectivity (CB1/CB2): ratio hCB1-Ki/hCB2-Ki
Experimental: as §1, §2, §3

hCB1 receptors [6] = target: T2, hCB1 receptors; experiment: [35S]GTPγS binding (G-protein activity), CHO-hCB1 membranes; assay type: biochemical; settings: 10 μM
Experimental: as §1
The GTPγS binding assay to measure G-protein activation was performed as previously described. Briefly, in a total volume of 1 ml, 25 μg of CHO-hCB2, 50 μg of CHO-hCB1-Rx or 50 μg of CHO-hMOR membranes homogenates were added to each reaction mixture containing 0.1 nM [^35S]GTPγS, 20 mM HEPES, 10 mM MgCl2, 100 mM NaCl, 10 μM GDP, 0.1% bovine serum albumin and the indicated concentrations of ligand to be examined. After mixing, reaction mixtures were incubated at 30°C for 30 min. […] Nonspecific binding was defined by the amount of radioactivity remaining in the presence of 10 μM non-radiolabeled GTPγS. Reactions were terminated by rapid vacuum filtration through glass fiber filters followed by four washes with ice cold 50 mM HEPES (pH 7.4) containing 0.1% bovine serum albumin. Four ml of scintiverse scintillation fluid (Fisher Scientific, Waltham, MA) was added to the filters and the amount of radioactivity was quantified 24 hr later utilizing liquid scintillation spectrophotometry.
as §3, with “All dissociation constants and measurements of potency were converted to pKi, pKB, pEC50, or pIC50 values by taking the negative log of each value so that parametric tests could be used for statistical comparisons.” left out, “To compare two groups, the non-paired Student's t-test was used.” left out

T1 sequence (P34972 whole entry): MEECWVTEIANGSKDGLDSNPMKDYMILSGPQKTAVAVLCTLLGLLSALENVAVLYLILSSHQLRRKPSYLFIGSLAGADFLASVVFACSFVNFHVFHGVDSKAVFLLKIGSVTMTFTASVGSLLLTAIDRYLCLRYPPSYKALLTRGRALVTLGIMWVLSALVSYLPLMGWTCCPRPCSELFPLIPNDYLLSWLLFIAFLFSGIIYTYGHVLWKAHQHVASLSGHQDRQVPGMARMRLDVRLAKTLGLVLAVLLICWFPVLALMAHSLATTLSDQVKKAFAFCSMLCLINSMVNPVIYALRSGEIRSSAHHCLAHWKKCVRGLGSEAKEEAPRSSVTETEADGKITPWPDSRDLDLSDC
T2 sequence (P21554 whole entry): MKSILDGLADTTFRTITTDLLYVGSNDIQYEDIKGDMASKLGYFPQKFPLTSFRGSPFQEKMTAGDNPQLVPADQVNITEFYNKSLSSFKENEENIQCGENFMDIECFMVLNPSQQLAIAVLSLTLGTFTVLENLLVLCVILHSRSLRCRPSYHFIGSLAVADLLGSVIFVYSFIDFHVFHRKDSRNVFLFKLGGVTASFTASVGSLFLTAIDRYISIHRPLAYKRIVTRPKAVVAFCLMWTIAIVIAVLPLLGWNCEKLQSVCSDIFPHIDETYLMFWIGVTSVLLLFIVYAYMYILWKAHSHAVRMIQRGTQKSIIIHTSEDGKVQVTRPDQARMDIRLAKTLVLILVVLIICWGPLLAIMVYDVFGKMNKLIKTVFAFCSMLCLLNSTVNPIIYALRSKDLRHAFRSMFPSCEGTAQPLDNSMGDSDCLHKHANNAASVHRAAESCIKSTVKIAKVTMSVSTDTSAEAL

Ki (hCB2 receptors [1]) [nM] | Type of antagonism of CP-55,940 (hCB1 receptors [2]; CHO-hCB1 cells) | Kb (hCB1 receptors [2]; read-out: Kb (antagonist dissociation constant)) [µM] | Type of antagonism of CP-55,940 (hCB2 receptors [3]) | Kb (hCB2 receptors [3]; against CP-55,940, AM-630 1 μM, Z-Tam 10 μM, Z-4OHT 10 μM, read-out: Kb (antagonist dissociation constant)) | EMAX, intracellular [3H]cAMP (hCB2 receptors [4]) | EC50 (hCB2 receptors [4]) [µM] | Ki (hCB1 receptors [5]) [nM] | Selectivity (CB1/CB2) (hCB1 receptors [5]) | Effect on basal [35S]GTPγS binding (hCB1 receptors [6]) | SMILES
495 | surmountable antagonism | 4.68 | surmountable antagonism | 856 nM and 851 nM | 323 ± 37^a^,^b % | 4.9 | 681 | 1.38 | – | CC/C(=C(\c1ccc(O)cc1)c1ccc(OCCN(C)C)cc1)c1ccccc1 [Z-4OHT, 4-hydroxytamoxifen]
957 | – | – | – | – | 352 ± 52^a^,^b % | 9.12 | 1240 | 1.30 | did not significantly alter | CC/C(=C(\c1ccc(O)cc1)c1ccc(OCCN(C)C)cc1)c1ccccc1 [E-4OHT, 4-hydroxytamoxifen]
